Laboratory results from patent US20240041827A1, “COMPOSITIONS FOR THE TREATMENT OF FAT RELATED CONDITIONS AND DISORDERS” (priority 2020, published 2024).

Assays:
[1] = tested on: human visceral preadipocytes; assay: in vitro; conditions: for Average RZL-012 and collagenase induced cell death (% vs untreated cells): RZL12 0 μM, 24 h of incubation
Description: Human visceral preadipocytes were seeded in 96-well white clear bottom plates at 10,000 cells per well in 100 μl pre-adipocyte medium and incubated overnight at 37° C. 5% CO2. On the following day, adipogenic differentiation was induced by addition of 100 μl/well differentiation medium and incubation continued for 5 days. Adipogenic differentiation was verified by microscopic evaluation, addition of adipored reagents and fluorescent measurement at Ex485 nm/Em572 nm. […] Staurosporine (1 μM) and 0.2% DMSO were used as controls. Plates were incubated at 37° C. 5% CO2 for 2, 6 and 24 hours. Following incubation, cytotoxicity was measured using Cell Titer Glo 2.0 (Promega).
Test Item RZL-12 (1-300 μM) was prepared on the day of the testing as 150 mM stock solutions in DMSO. The 150 mM represents a 500×stock of the highest desired tested concentration. The 150 mM stock solution was first serially diluted in DMSO to acquire 500×stock solutions for each of the RZL-012 concentrations. The 500×stock solutions were then diluted 1:25 in medium to acquire 20×intermediate stock solutions. Finally, the 20×intermediate stock solutions were further diluted 1:20 in the assay (on the plate) that included seeded cells.
The 600 μM represents a 20× stock of the highest desired tested concentration. […] Finally, the 20×intermediate stock solutions were further diluted 1:20 in the assay plate that included seeded cells.
Human visceral pre-adipocytes (HPrAD-vis): HPrAD-vis cells (Lonza cat #PT-5005) were thawed at 37° C. and transferred into 50 ml tubes containing pre-adipocytes PGM-2 growth medium (PBM-2, 10% FBS, 1-glutamine, GA-1000). Cells were centrifuged at 300 g for 10 minutes, the supernatant was removed (Leaving about 1 ml of wash medium for not disrupting the cells) and 2 ml fresh PGM-2 medium was added. After resuspension, cells were counted and seeded in T-75 and T25 flasks at a density of 9,000 cells/cm^2 ([…], 225,000 cells/T25 flask). Medium was changed every 2-3 days until reached confluence of 70%.
Cells were sub-cultured only once, as soon as they reached 70% confluence. For this purpose, the culture medium of each flask was removed and cells were washed once with 5 ml PBS. The flask was shaken to ensure that the entire surface was covered and the PBS was removed. Then, 3 ml/T75 flask or 1 ml/T25 flask of fresh dedicated Trypsin/EDTA solution (from Lonza) was added and the flasks were incubated for 3-4 minutes at RT until ˜90% cells were detached. The Trypsin/EDTA solution was then neutralized by addition of 6 ml/T75 flask or 3 ml/T25 flask of full PGM-2 growth medium. Cells were collected in 50 ml tubes and centrifuged 10 minutes at 300 g. The supernatant was removed and the cells were resuspended in 3 ml fresh medium. Cells were then counted using a haemacytometer slide after being diluted 1:2 in trypan blue (SIGMA). For sub-culturing, cells were seeded in new T75 flasks at a density of 9,000 cells/cm^2 containing 15 ml fresh growth medium. Alternatively, the cells were seeded in 96-well culture plates at a density of 10,000 cells/well for the cell treatments.
HPrAD-vis cells: HPrAD-vis passaged once were seeded in 96-well plates as described above (10000cells/well in 100 μl medium) and allowed to settle overnight at 37° C., 5% CO2. Following day, adipogenic differentiation was induced by addition of 100 μl/well differentiation medium and incubated for 5 days. Adipogenic differentiation was verified by microscopic evaluation, addition of adipored reagents and fluorescent measurement at Ex485 nm/Em572 nm. In the morning of day 6, test and reference items were prepared as described above. Cells' medium was replaced with 90 μl fresh differentiation medium. […] Staurosporine (1 μM) and 0.2% DMSO were used as controls. Plates were incubated at 37° C. 5% CO2 for 2, 6 and 24 hours. Following incubation, cell viability was determined using the CellTiter-Gg® viability reagent (Promega) with reading of plates for luminescence. […]

Wi-38 fibroblasts = assay: Cell Titer Glo 2.0 cytotoxicity assay on Wi-38 fibroblasts; assay type: cell-based; conditions: cytotoxic reference control; after 24 hours of incubation

Molecule	maximal cell death ([1]; 24 h, 1 µM) [%]	maximal cell death (Wi-38 fibroblasts) [%]	Average RZL-012 and collagenase induced cell death (% vs untreated cells) ([1]; Collagenase 0.1 μM) [%]	Average RZL-012 and collagenase induced cell death (% vs untreated cells) ([1]; Collagenase 0.3 μM) [%]	Average RZL-012 and collagenase induced cell death (% vs untreated cells) ([1]; Collagenase 1 μM) [%]	Average RZL-012 and collagenase induced cell death (% vs untreated cells) ([1]; Collagenase 3 μM) [%]	Average RZL-012 and collagenase induced cell death (% vs untreated cells) ([1]; Collagenase 10 μM) [%]	Average RZL-012 and collagenase induced cell death (% vs untreated cells) ([1]; Collagenase 30 μM) [%]	concentrations at which the cytotoxic effect was observed ([1]; at all time points (2, 6, 24 h)) [nM]	effect of collagenase on RZL-012 cytotoxicity ([1]; collagenase 10 μM and 30 μM, 2 h time point)	effect of collagenase added together with RZL-012 on cell cytotoxicity ([1]; collagenase 0.1-1 μM, adipocytes, 6 h and 24 h time points, vs each compound alone)
CN[C@@H]1C[C@H]2O[C@@](C)([C@@H]1OC)n1c3ccccc3c3c4c(c5c6ccccc6n2c5c31)C(=O)NC4 [staurosporine, reference compound]	89	89									
Collagenase			7.28	6.53	25.57	33.27	65.68	79.93	> 3000	attenuated RZL-012 cytotoxicity	attenuate cell cytotoxicity
